Results as given in patent publication US9995734B2, “Human T cell line assay for evaluating the immunologic identity of glatiramer acetate preparations” (Mylan Inc., priority 2013, dated 2018).

Columns and labels:
Donor 3 GMA T-Cell Lines = assay: ATP proliferation assay (CellTiter Glo), Donor 3 GMA T-cell lines, incl. reactivity to non-canonical GA peptides; format: cell-based, human; conditions: for Non-Canonical Peptide Non-Reactivity: proliferation <2 times no antigen control
Donor 3 COP T-Cell Lines = assay: ATP proliferation assay (CellTiter Glo), Donor 3 COP T-cell lines, incl. reactivity to non-canonical GA peptides; format: cell-based, human; conditions: for Non-Canonical Peptide Non-Reactivity: proliferation <2 times no antigen control

## poly (Glu-Tyr; 1:1) [GT 11]
Donor 3 GMA T-Cell Lines; 165-B5G
  Non-Canonical Peptide Non-Reactivity: GT 11
Donor 3 GMA T-Cell Lines; 165-C4G
  Non-Canonical Peptide Non-Reactivity: GT 11
Donor 3 GMA T-Cell Lines; 165-C5G
  Non-Canonical Peptide Non-Reactivity: GT 11
Donor 3 GMA T-Cell Lines; 165-E7G
  Non-Canonical Peptide Non-Reactivity: GT 11
Donor 3 GMA T-Cell Lines; 165-E9G
  Non-Canonical Peptide Non-Reactivity: GT 11
Donor 3 GMA T-Cell Lines; 165-F5G
  Non-Canonical Peptide Non-Reactivity: GT 11
Donor 3 GMA T-Cell Lines; 165-F8G
  Non-Canonical Peptide Non-Reactivity: GT 11
Donor 3 GMA T-Cell Lines; 165-F10G
  Non-Canonical Peptide Non-Reactivity: GT 11
Donor 3 GMA T-Cell Lines; 165-H11G
  Non-Canonical Peptide Non-Reactivity: GT 11
Donor 3 GMA T-Cell Lines; T-cell line 165-B5G, 1.25 μg/mL antigen, Day 55 of culturing, No Antigen Value 846
  Proliferation (luminescent ATP assay), Mean: 2167 RLU
Donor 3 GMA T-Cell Lines; T-cell line 165-B5G, 2.5 μg/mL antigen, Day 55 of culturing, No Antigen Value 846
  Proliferation (luminescent ATP assay), Mean: 1957 RLU
Donor 3 GMA T-Cell Lines; T-cell line 165-B5G, 5 μg/mL antigen, Day 55 of culturing, No Antigen Value 846
  Proliferation (luminescent ATP assay), Mean: 1353 RLU
Donor 3 GMA T-Cell Lines; T-cell line 165-B5G, 10 μg/mL antigen, Day 55 of culturing, No Antigen Value 846
  Proliferation (luminescent ATP assay), Mean: 1191 RLU
Donor 3 GMA T-Cell Lines; T-cell line 165-C5G, 1.25 μg/mL antigen, autologous B-LCL
  Proliferation (luminescent ATP assay), Mean: 523 RLU
Donor 3 GMA T-Cell Lines; T-cell line 165-C5G, 2.5 μg/mL antigen, autologous B-LCL
  Proliferation (luminescent ATP assay), Mean: 620 RLU
Donor 3 GMA T-Cell Lines; T-cell line 165-C5G, 5 μg/mL antigen, autologous B-LCL
  Proliferation (luminescent ATP assay), Mean: 428 RLU
Donor 3 GMA T-Cell Lines; T-cell line 165-C5G, 10 μg/mL antigen, autologous B-LCL
  Proliferation (luminescent ATP assay), Mean: 471 RLU
Donor 3 GMA T-Cell Lines; T-cell line 165-E7G, 1.25 μg/mL antigen, autologous B-LCL, Day 55
  Proliferation (luminescent ATP assay), Mean: 2821 RLU
Donor 3 GMA T-Cell Lines; T-cell line 165-E7G, 2.5 μg/mL antigen, autologous B-LCL, Day 55
  Proliferation (luminescent ATP assay), Mean: 2914 RLU
Donor 3 GMA T-Cell Lines; T-cell line 165-E7G, 5 μg/mL antigen, autologous B-LCL, Day 55
  Proliferation (luminescent ATP assay), Mean: 2332 RLU
Donor 3 GMA T-Cell Lines; T-cell line 165-E7G, 10 μg/mL antigen, autologous B-LCL, Day 55
  Proliferation (luminescent ATP assay), Mean: 1848 RLU
Donor 3 GMA T-Cell Lines; T-cell line 165-E9G, 1.25 μg/mL antigen, autologous B-LCL
  Proliferation (luminescent ATP assay), Mean: 110 RLU
Donor 3 GMA T-Cell Lines; T-cell line 165-E9G, 2.5 μg/mL antigen, autologous B-LCL
  Proliferation (luminescent ATP assay), Mean: 119 RLU
Donor 3 GMA T-Cell Lines; T-cell line 165-E9G, 5 μg/mL antigen, autologous B-LCL
  Proliferation (luminescent ATP assay), Mean: 103 RLU
Donor 3 GMA T-Cell Lines; T-cell line 165-E9G, 10 μg/mL antigen, autologous B-LCL
  Proliferation (luminescent ATP assay), Mean: 96 RLU
Donor 3 GMA T-Cell Lines; T-cell line 165-F5G, 1.25 μg/mL antigen, autologous B-LCL
  Proliferation (luminescent ATP assay), Mean: 160 RLU
Donor 3 GMA T-Cell Lines; T-cell line 165-F5G, 2.5 μg/mL antigen, autologous B-LCL
  Proliferation (luminescent ATP assay), Mean: 124 RLU
Donor 3 GMA T-Cell Lines; T-cell line 165-F5G, 5 μg/mL antigen, autologous B-LCL
  Proliferation (luminescent ATP assay), Mean: 124 RLU
Donor 3 GMA T-Cell Lines; T-cell line 165-F5G, 10 μg/mL antigen, autologous B-LCL
  Proliferation (luminescent ATP assay), Mean: 158 RLU
Donor 3 GMA T-Cell Lines; T-cell line 165-F10G, 1.25 μg/mL antigen, autologous B-LCL
  Proliferation (luminescent ATP assay), Mean: 1388 RLU
Donor 3 GMA T-Cell Lines; T-cell line 165-F10G, 2.5 μg/mL antigen, autologous B-LCL
  Proliferation (luminescent ATP assay), Mean: 1506 RLU
Donor 3 GMA T-Cell Lines; T-cell line 165-F10G, 5 μg/mL antigen, autologous B-LCL
  Proliferation (luminescent ATP assay), Mean: 1598 RLU
Donor 3 GMA T-Cell Lines; T-cell line 165-F10G, 10 μg/mL antigen, autologous B-LCL
  Proliferation (luminescent ATP assay), Mean: 1294 RLU
Donor 3 GMA T-Cell Lines; T-cell line 165-H11G, 1.25 μg/mL antigen, autologous B-LCL
  Proliferation (luminescent ATP assay), Mean: 17 RLU
Donor 3 GMA T-Cell Lines; T-cell line 165-H11G, 2.5 μg/mL antigen, autologous B-LCL
  Proliferation (luminescent ATP assay), Mean: 354 RLU
Donor 3 GMA T-Cell Lines; T-cell line 165-H11G, 5 μg/mL antigen, autologous B-LCL
  Proliferation (luminescent ATP assay), Mean: 352 RLU
Donor 3 GMA T-Cell Lines; T-cell line 165-H11G, 10 μg/mL antigen, autologous B-LCL
  Proliferation (luminescent ATP assay), Mean: 308 RLU
Donor 3 COP T-Cell Lines; 165-B6C
  Non-Canonical Peptide Non-Reactivity: GT 11
Donor 3 COP T-Cell Lines; 165-B10C
  Non-Canonical Peptide Non-Reactivity: GT 11
Donor 3 COP T-Cell Lines; 165-C4C
  Non-Canonical Peptide Non-Reactivity: GT 11
Donor 3 COP T-Cell Lines; 165-C7C
  Non-Canonical Peptide Non-Reactivity: GT 11
Donor 3 COP T-Cell Lines; 165-D2C
  Non-Canonical Peptide Non-Reactivity: GT 11
Donor 3 COP T-Cell Lines; 165-D3C
  Non-Canonical Peptide Non-Reactivity: GT 11
Donor 3 COP T-Cell Lines; 165-F3C
  Non-Canonical Peptide Non-Reactivity: GT 11
Donor 3 COP T-Cell Lines; 165-F6C
  Non-Canonical Peptide Non-Reactivity: GT 11
Donor 3 COP T-Cell Lines; 165-U3C (so in the source)
  Non-Canonical Peptide Non-Reactivity: GT 11
Donor 3 COP T-Cell Lines; T-cell line 165-C4C, 1 μg/mL antigen, Day 66 of culture, 0 μg/mL 1881
  Proliferation (luminescent ATP assay), Mean: 2664
Donor 3 COP T-Cell Lines; T-cell line 165-C4C, 3 μg/mL antigen, Day 66 of culture, 0 μg/mL 1881
  Proliferation (luminescent ATP assay), Mean: 2804
Donor 3 COP T-Cell Lines; T-cell line 165-C4C, 10 μg/mL antigen, Day 66 of culture, 0 μg/mL 1881
  Proliferation (luminescent ATP assay), Mean: 2311
Donor 3 COP T-Cell Lines; T-cell line 165-C7C, 1.25 μg/mL antigen, autologous B-LCL
  Proliferation (luminescent ATP assay), Mean: 346 RLU
Donor 3 COP T-Cell Lines; T-cell line 165-C7C, 2.5 μg/mL antigen, autologous B-LCL
  Proliferation (luminescent ATP assay), Mean: 265 RLU
Donor 3 COP T-Cell Lines; T-cell line 165-C7C, 5 μg/mL antigen, autologous B-LCL
  Proliferation (luminescent ATP assay), Mean: 255 RLU
Donor 3 COP T-Cell Lines; T-cell line 165-C7C, 10 μg/mL antigen, autologous B-LCL
  Proliferation (luminescent ATP assay), Mean: 234 RLU
Donor 3 COP T-Cell Lines; T-cell line 165-F3C, 1 μg/mL antigen, Day 77 of culture, 0 μg/mL 1563
  Proliferation (luminescent ATP assay), Mean: 2108
Donor 3 COP T-Cell Lines; T-cell line 165-F3C, 3 μg/mL antigen, Day 77 of culture, 0 μg/mL 1563
  Proliferation (luminescent ATP assay), Mean: 2152
Donor 3 COP T-Cell Lines; T-cell line 165-F3C, 10 μg/mL antigen, Day 77 of culture, 0 μg/mL 1563
  Proliferation (luminescent ATP assay), Mean: 1652
Donor 3 COP T-Cell Lines; T-cell line 165-F6C, 1.25 μg/mL antigen, Day 76 of culture, No Antigen value 517
  Proliferation (luminescent ATP assay), Mean: 406
Donor 3 COP T-Cell Lines; T-cell line 165-F6C, 2.5 μg/mL antigen, Day 76 of culture, No Antigen value 517
  Proliferation (luminescent ATP assay), Mean: 426
Donor 3 COP T-Cell Lines; T-cell line 165-F6C, 5 μg/mL antigen, Day 76 of culture, No Antigen value 517
  Proliferation (luminescent ATP assay), Mean: 388
Donor 3 COP T-Cell Lines; T-cell line 165-F6C, 10 μg/mL antigen, Day 76 of culture, No Antigen value 517
  Proliferation (luminescent ATP assay), Mean: 303
